Data on 15 compounds can be found in patent publication US10766864B2, “Morphinan derivatives for the treatment of neuropathic pain” (Nektar Therapeutics, priority 2015, dated 2020).

Like-named read-outs stand apart in the source and are kept apart here. Some results are limits rather than exact numbers.

Assay [1] deals with mu opioid receptor (MOR) (Homo sapiens (Human), UniProt P35372). Put plainly: Competitive radioligand binding at MOR ([3H] Naloxone). Here is the method:
(§1) Receptor Binding at MOR and NMDA.
(§2) Affinities of various compounds were measured in vitro using competitive radioligand binding assays. Serial dilutions of test compounds were incubated with membranes prepared from CHO-K1 cells expressing the mu opioid receptor (MOR; for opioid receptor binding) or rat forebrain membranes (for NMDA receptor binding). 2 nM [^3H] Naloxone (MOR) or 0.2 nM [^3H] MK801 (NMDA) were used as the specific, competitive radioligands. 10 uM Naloxone (MOR), or 10 uM MK801 (NMDA) was used to determine non-specific binding. Bound radioactivity was measured using a scintillation counter & IC50 values for test compounds were determined by non-linear regression analysis using a one-site competition model (Graph Pad Prizm). Due to each test compound being solubilized in a buffered system for the assay, the results presented herein reflect the free base activity.

Assay [2] addresses NMDA receptor. Put plainly: Competitive radioligand binding at NMDA receptor ([3H] MK801), rat forebrain membranes. As to conditions: 0.2 nM [3H] MK801, reflects free base activity. Here is the method: as §1, §2
[3] abbreviates: membranes from CHO-K1 cells expressing MOR, 2 nM [3H] Naloxone, reflects free base activity, read-out: MOR IC50.

In the case of `CN1CC[C@]23CCCC[C@H]2[C@H]1Cc1ccc(Nc2ccncc2)cc13` [Compound 49, 17-methyl-N-(pyridin-4-yl)morphinan-3-amine], the values for the IC50 in assay [1] and in assay [2] were 100 to 1000 nM and 0.1 to 100 nM, respectively.
`CN1CC[C@]23CCCC[C@H]2[C@H]1Cc1ccc(Nc2ccncn2)cc13` [Compound 50, 17-methyl-N-(pyrimidin-4-yl)morphinan-3-amine]: the IC50 in assay [1] lay within 100 to 1000 nM; in assay [2], 0.1 to 100 nM.
`CN1CC[C@]23CCCC[C@H]2[C@H]1Cc1ccc(-c2ccoc2)cc13` [Compound 51, 3-(3-furyl)-17-methylmorphinan]: the IC50 is 10 to 100 nM in assay [1] and 1000 to 10000 nM in assay [2].
Turning to `CN1CC[C@]23CCCC[C@H]2[C@H]1Cc1ccc(-c2cnc(N)nc2)cc13` [Compound 52, 5-(17-methylmorphinan-3-yl)pyrimidin-2-amine], the half-maximal inhibitory concentration (IC50) was over 1000 nM in assay [1] (setting [3]) and 1000 to 10000 nM in assay [2].
As to `CN1CC[C@]23CCCC[C@H]2[C@H]1Cc1ccc(Nc2cncnc2)cc13` [Compound 53, 17-methyl-N-(pyrimidin-5-yl)morphinan-3-amine], the IC50 is 10 to 100 nM in assay [1] and over 10000 nM in assay [2].
`COCCOCCOCCOCCOCCOc1cncc(Nc2ccc3c(c2)[C@@]24CCCC[C@H]2[C@@H](C3)N(C)CC4)c1` [Compound 54, (4bR,8aR,9R)—N-(5-(2,5,8,11,14-pentaoxahexadecan-16-yloxy)pyridin-3-yl)-11-methyl-6,7,8,8a,9,10-hexahydro-5H-9,4b-(epiminoethano)phenanthren-3-amine]: the values for the IC50 in assay [1] (setting [3]) and in assay [2] were 10 to 100 nM and over 10000 nM, respectively.
`CN1CC[C@]23CCCC[C@H]2[C@H]1Cc1ccc(Nc2cnccn2)cc13` [Compound 55, 17-methyl-N-(pyrazin-2-yl)morphinan-3-amine]: the IC50 in assay [1] was 0.1 to 10 nM; in assay [2], over 10000 nM.
With `CN1CC[C@]23CCCC[C@H]2[C@H]1Cc1ccc(Nc2ccnnc2)cc13` [Compound 56, 17-methyl-N-(pyridazin-4-yl)morphinan-3-amine], the IC50 in assay [1] lay within 100 to 1000 nM; in assay [2], 0.1 to 100 nM.
`CN1CC[C@]23CCCC[C@H]2[C@H]1Cc1ccc(N(c2ccccn2)c2ccccn2)cc13` [Compound 57, 17-methyl-N,N-di(pyridin-2-yl)morphinan-3-amine]: the IC50 in assay [1] (setting [3]) is over 1000 nM; in assay [2], 1000 to 10000 nM.
Take `COCCOCCOc1ccc(Nc2ccc3c(c2)[C@@]24CCCC[C@H]2[C@@H](C3)N(C)CC4)cn1` [Compound 58, N-{6-[2-(2-methoxyethoxy)ethoxy]pyridin-3-yl}-17-methylmorphinan-3-amine]: the concentration for half-maximal inhibition (IC50) was 10 to 100 nM in assay [1] (setting [3]) and over 10000 nM in assay [2].
Regarding `COCCNc1ccc2c(c1)[C@@]13CCCC[C@H]1[C@@H](C2)N(C)CC3` [Compound 59, N-(2-methoxyethyl)-17-methylmorphinan-3-amine], the concentration for half-maximal inhibition (IC50) in assay [1] is 100 to 1000 nM; in assay [2], 1000 to 10000 nM.
The matching figures for `CN1CC[C@]23CCCC[C@H]2[C@H]1Cc1ccc(Nc2cccnn2)cc13` [Compound 61, 17-methyl-N-(pyridazin-3-yl)morphinan-3-amine]: 100 to 1000 nM and 1000 to 10000 nM.
Take `CN1CC[C@]23CCCC[C@H]2[C@H]1Cc1ccc(-n2ccnc2)cc13` [Compound 62, 3-(1H-imidazol-1-yl)-17-methylmorphinan]: the IC50 was in the range of 10 to 100 nM in assay [1] and 100 to 1000 nM in assay [2].
Regarding `CN1CC[C@]23CCCC[C@H]2[C@H]1Cc1ccc(Nc2ccccn2)cc13` [Compound 63, 17-methyl-N-(pyridin-2-yl)morphinan-3-amine], the IC50 in assay [1] and in assay [2] was 100 to 1000 nM throughout.
Turning to `COCCOCCOCCOCCOCCOc1ccc(Nc2ccc3c(c2)[C@@]24CCCC[C@H]2[C@@H](C3)N(C)CC4)cn1` [Compound 64, 17-methyl-N-[6-(2,5,8,11,14-pentaoxahexadecan-16-yloxy)pyridin-3-yl]morphinan-3-amine], the IC50 in assay [1] (setting [3]) was 10 to 100 nM; in assay [2], over 10000 nM.

One may read the IC50 as the concentration needed to halve the response being measured.
